compound: Cn1nnc2c(C(N)=O)ncn2c1=O [Temozolomide] + CS(=O)(=O)N1CCN(Cc2cc3nc(-c4cccc5[nH]ncc45)nc(N4CCOCC4)c3s2)CC1 [Pictilisib] (partner 1 µM); experiment: relative viability (nuclei count vs DMSO), 5 days (fraction); higher = more cells survive; conditions: first compound 0.2 µM
Outline: (§1)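 Five library-drug doses in √10 steps were combined with a fixed anchor-drug dose, or a single drug was given alone, by pin tool to lung cancer cell lines in 1536-well plates the day after seeding. Nuclei were stained and counted after 5 days. Relative viability is the nuclei count in treated wells over that in vehicle wells, taken as the median of duplicate plates.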

| Cell Line | relative viability |
| --- | --- |
| NCI-H1792 | 0.199 |
| NCI-H1915 | 1.11 |
| NCI-H1944 | 0.366 |
| NCI-H1975 | 0.272 |
| NCI-H1993 | 0.853 |
| NCI-H2085 | 0.452 |

same assay, conditions: first compound 0.6325 µM

| Cell Line | relative viability |
| --- | --- |
| LK-2 | 0.568 |
| LOU-NH91 | 0.547 |
| LU99A | 0.351 |
| LXF-289 | 0.788 |
| NCI-H23 | 0.508 |
| NCI-H322M | 0.555 |
| NCI-H358 | 0.392 |
| NCI-H441 | 0.443 |
| NCI-H460 | 0.318 |
| NCI-H596 | 0.404 |
| NCI-H647 | 0.444 |
| NCI-H650 | 0.97 |
| NCI-H727 | 0.316 |
| NCI-H838 | 0.48 |
| NCI-H1355 | 0.46 |
| NCI-H1395 | 0.631 |
| NCI-H1437 | 0.539 |
| NCI-H1651 | 0.681 |
| NCI-H1666 | 0.404 |
| NCI-H1734 | 0.418 |
| NCI-H1755 | 0.447 |
| NCI-H1792 | 0.304 |
| NCI-H1793 | 0.294 |
| NCI-H1915 | 0.914 |
| NCI-H1944 | 0.352 |
| NCI-H1975 | 0.308 |
| NCI-H1993 | 0.819 |
| NCI-H2085 | 0.434 |

same assay, conditions: first compound 2 µM

| Cell Line | relative viability |
| --- | --- |
| LK-2 | 0.575 |
| LOU-NH91 | 0.551 |
| LU99A | 0.324 |
| LXF-289 | 0.823 |
| NCI-H23 | 0.517 |
| NCI-H322M | 0.545 |
| NCI-H358 | 0.348 |
| NCI-H441 | 0.543 |
| NCI-H460 | 0.472 |
| NCI-H596 | 0.411 |
| NCI-H647 | 0.406 |
| NCI-H650 | 0.943 |
| NCI-H727 | 0.364 |
| NCI-H838 | 0.577 |
| NCI-H1355 | 0.427 |
| NCI-H1395 | 0.719 |
| NCI-H1437 | 0.502 |
| NCI-H1651 | 0.654 |
| NCI-H1666 | 0.394 |
| NCI-H1734 | 0.475 |
| NCI-H1755 | 0.462 |
| NCI-H1792 | 0.241 |
| NCI-H1793 | 0.286 |
| NCI-H1915 | 0.962 |
| NCI-H1944 | 0.363 |
| NCI-H1975 | 0.311 |
| NCI-H1993 | 0.871 |
| NCI-H2085 | 0.551 |

same assay, conditions: first compound 6.325 µM

| Cell Line | relative viability |
| --- | --- |
| LK-2 | 0.353 |
| LOU-NH91 | 0.523 |
| LU99A | 0.343 |
| LXF-289 | 0.737 |
| NCI-H23 | 0.401 |
| NCI-H322M | 0.483 |
| NCI-H358 | 0.305 |
| NCI-H441 | 0.375 |
| NCI-H460 | 0.272 |
| NCI-H596 | 0.385 |
| NCI-H647 | 0.272 |
| NCI-H650 | 0.865 |
| NCI-H727 | 0.286 |
| NCI-H838 | 0.446 |
| NCI-H1355 | 0.38 |
| NCI-H1395 | 0.612 |
| NCI-H1437 | 0.521 |
| NCI-H1651 | 0.588 |
| NCI-H1666 | 0.345 |
| NCI-H1734 | 0.429 |
| NCI-H1755 | 0.413 |
| NCI-H1792 | 0.314 |
| NCI-H1793 | 0.292 |
| NCI-H1915 | 0.468 |
| NCI-H1944 | 0.346 |
| NCI-H1975 | 0.302 |
| NCI-H1993 | 0.826 |
| NCI-H2085 | 0.453 |

same assay, conditions: first compound 20 µM

| Cell Line | relative viability |
| --- | --- |
| LK-2 | 0.305 |
| LOU-NH91 | 0.497 |
| LU99A | 0.335 |
| LXF-289 | 0.655 |
| NCI-H23 | 0.454 |
| NCI-H322M | 0.363 |
| NCI-H358 | 0.283 |
| NCI-H441 | 0.51 |
| NCI-H460 | 0.309 |
| NCI-H596 | 0.384 |
| NCI-H647 | 0.216 |
| NCI-H650 | 0.908 |
| NCI-H727 | 0.371 |
| NCI-H838 | 0.584 |
| NCI-H1355 | 0.39 |
| NCI-H1395 | 0.572 |
| NCI-H1437 | 0.44 |
| NCI-H1651 | 0.613 |
| NCI-H1666 | 0.298 |
| NCI-H1734 | 0.426 |
| NCI-H1755 | 0.379 |
| NCI-H1792 | 0.256 |
| NCI-H1793 | 0.309 |
| NCI-H1915 | 0.326 |
| NCI-H1944 | 0.342 |
| NCI-H1975 | 0.311 |
| NCI-H1993 | 0.834 |
| NCI-H2085 | 0.442 |

compound: Cn1nnc2c(C(N)=O)ncn2c1=O [Temozolomide] + NC(=O)Nc1cc(-c2cccc(F)c2)sc1C(=O)N[C@H]1CCCNC1 [AZD7762] (partner 0.2 µM); experiment: as above; conditions: first compound 0.2 µM
Outline: as §1

| Cell Line | relative viability |
| --- | --- |
| LK-2 | 0.444 |
| LOU-NH91 | 0.77 |
| LU99A | 0.377 |
| LXF-289 | 1.12 |
| NCI-H23 | 0.247 |
| NCI-H322M | 0.558 |
| NCI-H441 | 1.27 |
| NCI-H460 | 0.694 |
| NCI-H596 | 1.29 |
| NCI-H647 | 0.674 |
| NCI-H650 | 0.973 |
| NCI-H838 | 0.914 |
| NCI-H1355 | 0.736 |
